Experimental data as given in PubChem BioAssay (NCI).
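Dose response: 5 concentrations. Exposure: 48 h. Format: 96-well plates. Endpoint: linear interpolation; highest concentration if not reached. GI50 = concentration required for 50% inhibition of growth. Definition used: TGI = concentration required for complete inhibition of growth.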

Assays:
Assay in all cases: NCI-60 cell line screen, 48 h
[1] = test system: PC-3 prostate
[2] = test system: LOX IMVI melanoma
[3] = test system: MDA-MB-435
[4] = test system: RPMI-8226 leukemia
[5] = test system: A498 renal
[6] = test system: U251 CNS
[7] = test system: HT29 colon
[8] = test system: MALME-3M melanoma
[9] = test system: OVCAR-8 ovarian
[10] = test system: MOLT-4 leukemia
[11] = test system: SK-MEL-5 melanoma
[12] = test system: HCT-116 colon
[13] = test system: SK-MEL-2 melanoma
[14] = test system: ACHN renal
[15] = test system: 786-0 renal
[16] = test system: SF-539 CNS
[17] = test system: KM12 colon
[18] = test system: RXF 393 renal
[19] = test system: UACC-62 melanoma
[20] = test system: T-47D breast
[21] = test system: SNB-75 CNS
[22] = test system: SK-OV-3 ovarian
[23] = test system: OVCAR-5 ovarian
[24] = test system: NCI/ADR-RES ovarian
[25] = test system: NCI-H460 lung
[26] = test system: OVCAR-3 ovarian
[27] = test system: EKVX NSCLC
[28] = test system: DU-145 prostate
[29] = test system: M14 melanoma
[30] = test system: SF-295 CNS
[31] = test system: SNB-19 CNS
[32] = test system: SF-268 CNS
[33] = test system: HOP-92 NSCLC
[34] = test system: COLO 205 colon
[35] = test system: CCRF-CEM leukemia
[36] = test system: SK-MEL-28 melanoma
[37] = test system: SN12C renal
[38] = test system: NCI-H522 lung
[39] = test system: UACC-257 melanoma
[40] = test system: MDA-MB-231 breast
[41] = test system: SW-620 colon
[42] = test system: HS 578T breast
[43] = test system: BT-549 breast
[44] = test system: IGROV1 ovarian
[45] = test system: TK-10 renal
[46] = test system: SR leukemia
[47] = test system: K-562 leukemia
[48] = test system: CAKI-1 renal
[49] = test system: HCT-15 colon
[50] = test system: OVCAR-4 ovarian
[51] = test system: HCC-2998 colon
[52] = test system: A549 NSCLC
[53] = test system: MCF7 breast
[54] = test system: NCI-H226 lung
[55] = test system: HOP-62 NSCLC
[56] = test system: HL-60(TB) leukemia
[57] = test system: NCI-H23 lung
[58] = test system: UO-31 renal

`CCOC(=O)c1sc(NCC(=O)Nc2cccc([N+](=O)[O-])c2)c(C(=O)OCC)c1C` gave a GI50 [1] of 229 nM, a TGI [1] of 598 nM and a GI50 [2] of 172 nM. For the same molecule, the TGI [2] was 358 nM, the GI50 [3] was 486 nM and the TGI [3] was 1760 nM. The GI50 [4] was 366 nM, the TGI [4] was 1750 nM and the GI50 [5] was 309 nM. It also gave a TGI [5] of 1160 nM, a GI50 [6] of 274 nM and a TGI [6] of 1080 nM. It also gave a GI50 [7] of 272 nM, a TGI [7] of 821 nM and a GI50 [8] of 231 nM. It also gave a TGI [8] of 598 nM, a GI50 [9] of 375 nM and a GI50 [10] of 342 nM. The TGI [10] was over 33200 nM, the GI50 [11] was 346 nM and the TGI [11] was 1230 nM. For the same molecule, the GI50 [12] was 303 nM, the TGI [12] was 1360 nM and the GI50 [13] was 1770 nM. The TGI [13] was 4790 nM, the GI50 [14] was 289 nM and the TGI [14] was 797 nM. For the same molecule, the GI50 [15] was 254 nM, the TGI [15] was 907 nM and the GI50 [16] was 300 nM. It also gave a TGI [16] of 880 nM, a GI50 [17] of 539 nM and a TGI [17] of 3970 nM. For the same molecule, the GI50 [18] was 175 nM, the TGI [18] was 348 nM and the GI50 [19] was 173 nM. The TGI [19] was 381 nM, the GI50 [20] was 1270 nM and the TGI [20] was 3880 nM. It also gave a GI50 [21] of 790 nM, a TGI [21] of 3440 nM and a GI50 [22] of 307 nM. It also gave a TGI [22] of 838 nM, a GI50 [23] of 283 nM and a TGI [23] of 824 nM. The GI50 [24] was 319 nM, the TGI [24] was 1580 nM and the GI50 [25] was 313 nM. For the same molecule, the TGI [25] was 963 nM, the GI50 [26] was 376 nM and the TGI [26] was 1750 nM. The GI50 [27] was 1650 nM, the TGI [27] was 4530 nM and the GI50 [28] was 760 nM. The TGI [28] was 6320 nM, the GI50 [29] was 329 nM and the TGI [29] was 1300 nM. For the same molecule, the GI50 [30] was 543 nM, the TGI [30] was 3770 nM and the GI50 [31] was 496 nM. For the same molecule, the TGI [31] was 4740 nM, the GI50 [32] was 961 nM and the TGI [32] was 3740 nM. The GI50 [33] was 221 nM, the TGI [33] was 873 nM and the GI50 [34] was 287 nM. It also gave a TGI [34] of 846 nM, a GI50 [35] of 288 nM and a GI50 [36] of 291 nM. It also gave a TGI [36] of 883 nM, a GI50 [37] of 285 nM and a TGI [37] of 930 nM. The GI50 [38] was 251 nM, the TGI [38] was 757 nM and the GI50 [39] was 1060 nM. It also gave a TGI [39] of 5240 nM, a GI50 [40] of 1230 nM and a TGI [40] of 3850 nM. For the same molecule, the GI50 [41] was 325 nM, the TGI [41] was 1900 nM and the GI50 [42] was 270 nM. The TGI [42] was 1030 nM, the GI50 [43] was 258 nM and the TGI [43] was 769 nM. It also gave a GI50 [44] of 238 nM, a TGI [44] of 693 nM and a GI50 [45] of 263 nM. The TGI [45] was 1270 nM, the GI50 [46] was 354 nM and the GI50 [47] was 333 nM. For the same molecule, the TGI [47] was over 36700 nM, the GI50 [48] was 267 nM and the TGI [48] was 810 nM. It also gave a GI50 [49] of 286 nM, a TGI [49] of 1840 nM and a GI50 [50] of 897 nM. The TGI [50] was 5180 nM, the GI50 [51] was 1400 nM and the TGI [51] was 3470 nM. The GI50 [52] was 461 nM, the TGI [52] was 3060 nM and the GI50 [53] was 274 nM. The TGI [53] was 1030 nM, the GI50 [54] was 230 nM and the TGI [54] was 602 nM. The GI50 [55] was 1020 nM, the TGI [55] was 4130 nM and the GI50 [56] was 464 nM. It also gave a GI50 [57] of 241 nM, a TGI [57] of 665 nM and a GI50 [58] of 202 nM. It also gave a TGI [58] of 522 nM.
